Experimental data reported in patent US20220106304A1, “Transcription Factor BRN2 Inhibitory Compounds as Therapeutics and Methods for Their Use” (The University of British Columbia, priority 2018, published 2022).
pIC50: −log10 of the molar value.

Columns and labels:
BRN2 = biological target: T1, BRN2 (Homo sapiens, UniProt P20265); assay: cell-based; conditions: negative = activation; for inhibition at 10 µM: read-out: % BRN2 Inhibition (10 μM), 10 μM compound, 24 hours, 42D^ENZR cells stably expressing BRN2-luciferase reporter; for inhibition at 30 µM: read-out: % BRN2 Inhibition (30 μM), 30 μM compound, 24 hours, 42D^ENZR cells stably expressing BRN2-luciferase reporter
T1 sequence (P20265 1-443): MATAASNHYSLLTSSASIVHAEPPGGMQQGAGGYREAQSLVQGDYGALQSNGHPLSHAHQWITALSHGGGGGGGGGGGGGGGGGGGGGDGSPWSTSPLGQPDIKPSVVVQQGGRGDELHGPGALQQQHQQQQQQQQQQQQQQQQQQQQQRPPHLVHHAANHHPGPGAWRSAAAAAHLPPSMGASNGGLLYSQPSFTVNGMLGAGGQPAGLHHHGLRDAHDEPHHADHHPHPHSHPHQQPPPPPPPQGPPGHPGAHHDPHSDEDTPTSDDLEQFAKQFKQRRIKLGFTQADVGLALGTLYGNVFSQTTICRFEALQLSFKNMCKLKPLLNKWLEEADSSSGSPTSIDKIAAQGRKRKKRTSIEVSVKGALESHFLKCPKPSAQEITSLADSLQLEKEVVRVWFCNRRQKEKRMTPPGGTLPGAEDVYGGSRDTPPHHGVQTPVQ

[1] = Liver microsome metabolic stability, MLM; type: in vitro ADME; conditions: MLM (single value or second of two), 1 μM compound, 0.25 mg/mL protein; for Met Stab % (60 mins HLM/MLM): percent remaining at 60 min, 1 mM NADPH; for half-life at 1 µM: mouse, liver microsomes, pH 7.4, read-out: T1/2 in (mins HLM/MLM)
How it was run: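 Compound (1 μM) incubated at 37 °C with mouse or human liver microsomes (0.25 mg/mL) in 50 mM phosphate pH 7.4 with 1 mM NADPH; samples quenched at 0–60 min. Parent loss by LC-MS/MS gives t½ (0.693/k) and CL'int scaled by 45 mg protein/g liver.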

42D^ENZR cells = assay: Cell proliferation (crystal violet), BRN2 expressing 42D^ENZR cells; type: cell-based; conditions: 42D cells, approximately 72 hours
Method: (§1) Plate 42DENZR (˜7000 cells per well) and 16D^CRPC (˜5000 cells per well) cells in 96 well plate with a volume of 100 μL per well. • 2. Next day 1 mL aliquots of media are combined with 3× the desired concentration of compounds. The aliquots are vortexed and 50 μL of each 3× concentration is added to the 100 μL of media in each well to give the ix desired concentration.
(§2) The following are the desired concentrations:
(§3) 0, 10 nM, 100 nM, 500 nM, 1 μM, 2.5 μM, 5 μM, 10 μM, 15 μM, […], 30 μM. • 3. Approximately 72 hours later, 17 μL of 10% Glutaraldehyde is added to each well and plates are placed on a shaker for 20-30 minutes. • 4. Media is washed off the fixed cells by slow submersion in a container of water. Then the water is removed by tapping the plate upside down. • 5. 75 μL of Crystal Violet™ solution is added into the 96 well plates and placed on a shaker for ˜30 minutes. • 6. Media is washed off the fixed cells by repeated slow submersion in a container of water and the plates are allowed to dry over-night. • 7. Next day, 75 μL of Sorensen Solution is accurately pipetted into each well. The plates placed on a shaker for ˜30 minutes. • 8. Absorbance is measured in the plate at 590 nm.

[2] = tested on: 42D^ENZR cells vs 16D^CRPC cells; assay: Cell proliferation specificity, 42D^ENZR cells vs 16D^CRPC cells; type: cell-based; conditions: 42D cells express BRN2, 16D cells do not; some also LNCaP; result in words
Method: as §1, §2, §3
Compounds that Show Specificity Towards 42D^ENZR Cells Vs 16D^CRPC Cells Progress to Step 4.
Where data is not available “na” is inserted.

Compound | inhibition at 10 µM (BRN2) [%] | inhibition at 30 µM (BRN2) [%] | Met Stab % (60 mins HLM/MLM) [1] [%] | half-life at 1 µM [1] [min] | pIC50 (42D^ENZR cells) | specificity [2]
Clc1ccc2cc(-c3cccc(-c4ccc[nH]4)n3)oc2c1 [VPC-18-149] | 94.6 | 96.2 | 21 | 30 | 6.00 | not 16D
Cc1ccc2cc(-c3csc(-c4ccco4)n3)oc2c1 [VPC-18-110, 2-(furan-2-yl)-4-(6-methylbenzofuran-2-yl)thiazole] | 93.5 | 98.6 | 1 | 10 |  | VPC-18- 110 (specific)
Clc1ccc2cc(-c3csc(-c4cc[nH]c4)n3)oc2c1 [VPC-18-115] | 98 | 99 | 18 | 22 |  | VPC-18- 115 (specific)
Cc1c(-c2csc(-c3ccc[nH]3)n2)oc2cc(Cl)ccc12 [VPC-18-155] |  |  | 24 | 31 | 5.00 | not 16D
c1coc(-c2ncc(-c3cc4ccccc4o3)s2)c1 [VPC-18-90, 5-(benzofuran-2-yl)-2-(furan-2-yl)thiazole] | 80 | 92 | 0 | 8 |  | VPC-18-90 (specific)
Clc1ccc2cc(-c3csc(-c4ccoc4)n3)oc2c1 [VPC-18-105, 4-(6-chlorobenzofuran-2-yl)-2-(furan-3-yl)thiazole] | 79.5 | 92 | 1 | 10 |  | VPC-18- 105 (specific 42D not 16D)
FC(F)(F)c1ccc2cc(-c3csc(-c4ccoc4)n3)oc2c1 [VPC-18-104, 2-(furan-3-yl)-4-(6-(trifluoromethyl)benzofuran-2-yl)thiazole] | 87.1 | 94.2 | 1 | 10 |  | VPC-18- 104 (specific 42D not 16D)
c1coc(-c2nc(-c3coc4ccccc34)cs2)c1 [VPC-18-81, 4-(benzofuran-3-yl)-2-(furan-2-yl)thiazole] | 97 | 99 | 2 | 11 |  | VPC-18-81 (specific to 42D)
FC(F)(F)c1ccc2cc(-c3csc(-c4ccc[nH]4)n3)oc2c1 [VPC-18-108] | 84.4 | 92.6 | 15 | 31 |  | VPC-18- 108 (specific)
